This passage reports inhibition, activity and IC50 results from patent US20030134859A1 (SANKYO COMPANY, LIMITED, priority 2000, published 2003).

In one assay the test system is TNF-α production. In words: Inhibitory activity against cytokine (TNF-α) production in LPS-stimulated RAW264.7 cells. It is filed as cell-based, mouse. The settings on record: Mus musculus, 1 μM test compound, LPS 10 ng/mL. The method, then:
The mouse monocyte/macrophage cell line, RAW264.7 (ATCC TIB71) was purchased from Dainippon Pharmaceutical Co., Ltd. The RAW264.7 cells were cultured in a CO2 incubator (37° C., 95% of humidity, 5% of CO2) by using the Dulbecco's modified Eagle's medium (DMEM medium; GIBCO, Cat. No. 11995-040) containing bovine fetal serum (the final concentration: 10% (v/v), MOREGATE, lot No. 474030), penicillin G (the final concentration: 50 units/mL […], GIBCO) and streptomycin (the final concentration: 20 μg/mL, GIBCO).
Sixty (60) μL of the RAW264.7 cell suspension (83,000 cells/mL) were plated into each well of a 96-well microplate (5,000 cells/well). After the cells were cultured for 4 hr in a CO2 incubator, 40 μL of DMEM medium containing 25 ng/mL of LPS (Sigma-Aldrich Japan K. K.) were added into each well (final concentration of LPS: 10 ng/mL). The test compound dissolved in DMSO at a concentration of 1 mM was diluted with DMEM medium by 20 times. Then 2 μL/well of the diluted solution were added to wells containing the plated cells (final concentration of the test compound: 1 μM). As the control, 2 μL/well of DMSO diluted with DMEM medium by 20 times were added to wells containing the plated cells either with LPS (final concentration: 10 ng/mL) or without LPS. After these cells were cultured in a CO2 incubator for 15 hr, the supernatant of the medium was recovered. The amount of mTNF-α in the medium supernatant was determined with a mouse TNF-α ELISA kit Quantikine M (R&D System), according to the experiment protocol attached with the kit.
The inhibitory activity of the test compound against TNF-α production was calculated according to the following equation.
A: The amount of TNF-α in the presence of test compound
B: The amount of TNF-α in the control without LPS
C: The amount of TNF-α in the control with 10 ng/mL of LPS
Inhibitory Activity of the Test Compound against TNF-α Production (%)=100−(A−B)/(C−B)×100

In assay [1] the test system is Rat white adipocytes. The assay is described as follows: Inhibition of the differentiation of adipocytes (Oil Red O). The class given is cell-based. The settings on record: Rattus norvegicus, Adipocyte, 120 h, 100 nM test compound; 5 days; Oil Red O ABS550; control = 100%, blank = 0%; Table 3; read-out: Rate of Differentiation (%). The procedure, abridged: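 Rat white preadipocytes, 5,000 cells/well, given differentiation medium with compound at 100 nM final (0.1% DMSO) for 5 days at 37 °C. Lipid stained with Oil Red O, eluted in DMSO, read at 550 nm; differentiation % relative to DMSO control (100%) and blank (0%).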

The target of a further assay is T1, human PPAR γ 2 (Homo sapiens, UniProt P37231).
T1 construct: expressed in transfected cells; host or cells: human osteosarcoma MG63, transiently co-transfected with pSG5-hPPARg and the reporter pGV-P2-PPRE
T1 sequence (P37231 1-505): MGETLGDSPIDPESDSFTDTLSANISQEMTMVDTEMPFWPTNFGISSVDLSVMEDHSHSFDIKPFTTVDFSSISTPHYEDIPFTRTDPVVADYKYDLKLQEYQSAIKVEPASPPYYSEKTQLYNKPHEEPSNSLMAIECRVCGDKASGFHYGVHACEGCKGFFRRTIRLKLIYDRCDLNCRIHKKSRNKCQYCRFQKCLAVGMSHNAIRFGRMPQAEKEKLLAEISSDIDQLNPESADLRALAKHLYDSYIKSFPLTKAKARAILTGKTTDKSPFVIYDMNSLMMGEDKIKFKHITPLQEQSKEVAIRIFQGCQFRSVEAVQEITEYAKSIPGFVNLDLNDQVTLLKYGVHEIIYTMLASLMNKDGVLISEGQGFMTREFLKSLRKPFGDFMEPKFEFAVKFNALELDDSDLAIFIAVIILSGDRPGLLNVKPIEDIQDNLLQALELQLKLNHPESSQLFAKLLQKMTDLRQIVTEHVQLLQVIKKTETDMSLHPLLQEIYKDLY
The assay is described as follows: Inhibitory activity against PPAR γ transcription in the presence of agonist compound A, luciferase reporter. It is filed as cell-based. The settings on record: in the presence of 10 nM compound A (agonist); MG63 cells transfected with pSG5-hPPARg and pGV-P2-PPRE; 24 hr. An excerpt:
The primers of the polymerase chain reaction (hereinafter “PCR”) were designed according to the gene sequence of human PPAR γ 2 (GenBANK accession No. D83233). […] For this, 2 kinds of polynucleotides shown in the sequence numbers 1 and 2 in the sequence table described below (hereinafter “S1” and “AS1”, respectively) were used as PCR primers.
In order to determine transcriptional activity via PPAR γ, 2 kinds of polynucleotides represented in sequence numbers 3 and 4 in the sequence table described below (hereinafter “S2” and “AS2”, respectively) were used for construction of the reporter plasmid having PPAR responsive element. The DNA fragment inserted was designed based on the gene sequence in the promoter region of rat acylCo-A oxidase (J. D. Tugwood, EMBO J., 11 (2), pp433-439 (1992)). For insertion of the DNA fragment into the reporter plasmid pGV-P2 (TOYO INK MFG CO., LTD), a NheI site and an XhoI site were added to the S2 and AS2, respectively.
Using cDNA library (Clontech) derived from human adipose tissue as a template, DNA oligomers S1 and AS1 that were synthesized in the procedure 1 as primers and Ex-Taq™ (TAKARA BIO INC.) as a thermostable DNA polymerase-PCR was carried out. […] Each cycle consisted of incubation at 94° C. for 1 min for denaturation of the template, then at 55° C. for 30 sec for annealing of DNA oligomers the PCR primer, and then at 72° C. for 30 sec for extension of the chain. The obtained DNA fragments with approximately 1500 base pairs were digested at the Bgl II sites and were inserted into BamHI sites of pSG5. Thus a human PPAR γ expression plasmid named pSG5-hPPAR g was obtained.
Vector pGV-P2 digestion products was prepared by digestion using the restriction enzymes, NheI and XhoI, and purified by 1.0% agarose-gel electrophoresis. The DNA oligomers, S2 and AS2 obtained in Procedure 2, were mixed together and were incubated in a hot bath at 94° C. for 1 min. After the annealing was partially broken, they were further incubated at 25° C. for 1 hr. Thus double-stranded DNA with annealing of S2 and AS2 was formed. Then, the terminus of the double-stranded DNA with annealing of S2 and AS2 was phosphorylated with DNA polynucleotide kinase (TOYOBO CO., LTD). After that, it was ligated to the pGV-P2 digestion products which were prepared previously using the NheI site and XhoI site. Thus the reporter plasmid pGV-P2-PPRE was obtained.
Using the plasmid obtained by the procedures 3 and 4, transformation of Escherichia coli HB-101 strain was carried out by conventional methods. HB-101 strain having the plasmid was incubated in L-broth medium (containing 10 g of trypton (Difco), 5 g of yeast extract (Difco), 5 g of sodium chloride in 1 L of aqueous solution) containing 100 μg/ml of ampicillin at 37° C. for 17 hrs. Then, each plasmid was purified by the alkaline-SDS method and employed for the gene transfection to mammalian cells. After mixing the pSG5-hPPARg, PGV-P2-PPRE and LipofectAMINE reagent (GIBCO BRL), the human osteosarcoma MG63 was transiently transfected. Then the cells were recovered. The recovered cells were plated on a 96-well plate so as to be 30,000 cells/well and cultured in a CO2 incubator (NAPCO) at 37° C. for 24 hr under the condition of 5% CO2, 95%-RH.
Ten (10) nM of the following compound A (although compound A is described here as a representative compound, the compound is not limited to compound A, if the compound exerts a PPAR r agonistic activity) and various concentrations of the test compound were added to culturing medium of the cells prepared in the Procedure 5.
On the technique in general: A reporter such as luciferase makes a cellular process visible.

The test system of assay [2] is Rat white adipocytes. The assay is described as follows: Stimulation of differentiation of the adipocytes (Oil Red O). The class given is cell-based. The settings on record: Rattus norvegicus, Adipocyte, 120 h, 100 nM test compound; 5 days; Oil Red O ABS550; control = 100%, blank = 0%; Table 7; read-out: Rate of Differentiation (%). The method, then: Rat white adipocytes contained in the white adipocyte culture kit, which was purchased from HOKUDO, were used. Mediums for proliferation and for differentiation-inducing, which were contained in the white adipocyte culture kit purchased from HOKUDO, were used.
Immediately after arrival of the purchased cells, all medium for transportation was discarded and replaced with 5 ml of proliferation medium (/25 cm^2-flask) and the cells were cultured for one day. Then, a cell suspension was prepared with proliferation medium so as to be 83,000 cells/mL, and the suspension was plated into a type I 96-well collagen-coated microplate (SUMITOMO BAKELITE CO., ltd.) so as to be 5,000 cells/well (60 μL/well). For the blank, the proliferation medium without the cells was plated into the well (blank well) of each plate.
Further, 1) in the group treated with the test compound, 3 μL/well of a solution in which the test compound (100 μM) was dissolved in DMSO solution and diluted with differentiation-inducing medium by 20 times (final concentration of the test compound: 100 nM, final concentration of DMSO: 0.1% (v/v)) were added to the well where the cells were plated. 2) In the control group, 3 μL/well of DMSO solution that was diluted with differentiation-inducing medium by 20 times (final concentration of DMSO: 0.1% (v/v)) were added to the well where the cells were plated. Further, 3) in the blank group, 3 μL/well of DMSO solution that was diluted with differentiation-inducing medium by 20 times (final concentration: 0.1% (v/v)) were added to the blank well.
After culturing for 5 days, all differentiation-inducing medium was discarded and replaced with 60 μL of 10% (v/v) of formaldehyde solution (for fixation) in each well and the cells were kept stationary for 20 min at room temperature. After this the fixative solution was discarded and replaced with 60 μL of 0.2% (v/v) Triton X (Sigma-Aldrich Japan K. K.) solution in each well and kept stationary for 5 min at the room temperature. Then all Triton X solution was discarded and replaced with 60 μL of 60% (v/v) isopropanol solution containing dissolved Oil Red 0 (Sigma-Aldrich Japan K. K.) so as to be 0.3%, which was adipose tissue staining solution, and the well was left stationary for 10 min at room temperature. After the adipose tissue staining solution was discarded, the well was washed twice with 60 μL of 60% (v/v) isopropanol solution. Then, 100 μL of the DMSO were added to each well and stirred for 5 min at room temperature. The absorbance was measured at 550 nm (ABS550) with a multi-plate reader (LabsSystems), and the stained amount by Oil Red 0 was determined. The measured level at ABS550 in the control group was defined as 100%, while the level at ABS550 in the blank group was defined as 0%. The differentiation rate (%) of the adipocytes treated with the test compound was calculated.

In assay [3] the test system is Mouse preadipocyte strain 3T3-L1. The assay is described as follows: Inhibition of differentiation as an indication of acetic acid uptake. The class given is cell-based. The settings on record: Mus musculus, 0.1 μM test substance, control (0.01% dimethylsulfoxide) = 100%, read-out: Rate of Uptake (%) of [2-14C] acetic acid. An outline of the steps:
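Confluent 3T3-L1 cells induced to differentiate for 4 days (insulin, IBMX, dexamethasone, 5% FBS) with test compound at 0.1 μM final or 0.01% DMSO, then 2 days in insulin maintenance medium, at 37 °C, 10% CO2. [2-14C]acetic acid uptake over 1 hr counted by scintillation; expressed as % of DMSO control.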

In turn, `CCOC(=O)NC(=O)Nc1ccc(-c2ccc(NC(=O)c3cc([N+](=O)[O-])ccc3Cl)cc2)cc1` [Example 244, N-[4-[4-(Ethoxycarbonylaminocarbonylamino)phenyl]phenyl]-(2-chloro-5-nitrophenyl)carboxamide] displayed an inhibition at 1 µM in the assay with TNF-α production (RAW264.7, 15 h) of 26.5%. For the same compound, the activity at 0.1 µM with Rat white adipocytes [1] is 45%.

With `CN1CCN(C(=O)c2ccc(NC(=O)c3cc([N+](=O)[O-])ccc3Cl)cc2)CC1` [Example 164, N-[4-(4-Methylpiperazin-1-ylcarbonyl)phenyl]-(2-chloro-5-nitrophenyl)carboxamide], at human PPAR γ 2, the 50% inhibitory concentration (IC50) came to 0.6 nM. The activity at 0.1 µM in the assay on Rat white adipocytes [2] is 125%.

In turn, `O=C(Nc1nc(-c2cccc([N+](=O)[O-])c2)cs1)c1cc([N+](=O)[O-])ccc1Cl` [Example 61, N-[4-(3-Nitrophenyl)thiazol-2-yl]-(2-chloro-5-nitrophenyl)carboxamide] registered an inhibition at 1 µM in the assay with TNF-α production (15 hr) of 22.6%. The activity at 0.1 µM in assay [3] came out at 74.8%.

The compound `CCCCCN(CCC)c1ccc(-c2ccc(NC(=O)c3cc([N+](=O)[O-])ccc3Cl)cc2)cc1` [Example 211, N-[4-[4-(N-Pentyl-N-propylamino)phenyl]phenyl]-(2-chloro-5-nitrophenyl)carboxamide] displayed an inhibition at 1 µM in the assay on TNF-α production (RAW264.7, 15 h) of 27.6%. For the same compound, the activity at 0.1 µM with Rat white adipocytes [1] was 37.3%.

The compound `Nc1ccc(-c2csc(NC(=O)c3cc([N+](=O)[O-])ccc3Cl)n2)cc1` [Example 241, N-[4-(4-Aminophenyl)thiazol-2-yl]-(2-chloro-5 nitrophenyl)carboxamide] displayed an inhibition at 1 µM in the assay on TNF-α production (RAW264.7, 15 h) of 28%. In addition, in the assay on Rat white adipocytes [1], the activity at 0.1 µM is 57.9%.

On to `O=C(NCc1ccccc1)Nc1ccc(-c2ccc(NC(=O)c3cc([N+](=O)[O-])ccc3Cl)cc2)cc1` [Example 248, N-[4-[4-(Benzylaminocarbonylamino)phenyl]phenyl]-(2-chloro-5-nitrophenyl)carboxamide], for which, in the assay on TNF-α production (RAW264.7, 15 h), at 1 µM the inhibition was 19.1%. Moreover, the activity at 0.1 µM with Rat white adipocytes [1] is 64.4%.

In the case of `O=C(Nc1ccc(C(=O)N2CCCC2)cc1)c1cc([N+](=O)[O-])ccc1Cl` [Example 160, N-[4-(Pyrrolidinylcarbonyl)phenyl]-(2-chloro-5-nitrophenyl)carboxamide], the half-maximal inhibitory concentration (IC50) on human PPAR γ 2 stood at 110 nM. For the same compound, the activity at 0.1 µM with Rat white adipocytes [2] came out at 128%.

As usually defined, the inhibition is the relative decrease from the control value, in per cent. Low values mean a weak effect, high ones a strong effect. By IC50 is commonly meant the point on the concentration scale where inhibition reaches its midpoint.
